Values of other authors as cited in patent US20120035103A1 (priority 2010, published 2012).

Tested on: cells that line the nasal cavity

Appearance of the cells that line the nasal cavity (0.50% TDM, versus 0.125% TDM): became more evident
SMILES: CCCCCCCCCCCCCCO[C@@H]1O[C@H](CO)[C@@H](O[C@H]2O[C@H](CO)[C@@H](O)[C@H](O)[C@H]2O)[C@H](O)[C@H]1O [TDM, Tetradecyl-β-d-maltoside]
Toxicity to the cells that line the nasal cavity (0.125% TDM): minimal toxicity
